The values that follow come from ChEMBL document CHEMBL1135516, “Three-dimensional quantitative structure-activity relationship analysis of ligand binding to human sequence antidigoxin monoclonal antibodies using comparative molecular field analysis” (J Med Chem, 2002).

Assay [1] deals with Monoclonal antibody (mAb). The assay is described as follows: Binding affinity against human monoclonal antibody (mAb)-1B3.
The subject of assay [2] is Monoclonal antibody (mAb). The assay can be described thus: Binding affinity against human monoclonal antibody (mAb)-11E6.
Assay [3] has as its system Monoclonal antibody (mAb). The assay is described as follows: Binding affinity against human monoclonal antibody (mAb)-5C2.
Assay [4] deals with Monoclonal antibody (mAb). The assay is described as follows: Binding affinity against human monoclonal antibody (mAb)-7F2.
The test system of assay [5] is Monoclonal antibody (mAb). The assay is described as follows: Binding affinity against murine monoclonal antibody (mAb)-40-50.

Activity calls are given as the source filed them. The rule behind the calls is not given here.

Consider `C[C@@H]1O[C@@H](O[C@@H]2C=C3CC[C@@H]4[C@H](CC[C@]5(C)[C@@H](c6ccc(=O)oc6)CC[C@]45O)[C@@]3(C)CC2)[C@H](O)[C@H](O)[C@H]1O`, for which the IC50 ratio in assay [1] is 670; in assay [2], 800; in assay [3] it was 400; in assay [4], 69.

Consider `C[C@]12CC[C@H](O)CC1=CC[C@@H]1[C@@H]2CC[C@]2(C)C(=O)CC[C@@H]12`, for which the IC50 ratio result in assay [1] was “No inhibition”.

Consider `C[C@H]1O[C@@H](O[C@H]2[C@@H](O)C[C@H](O[C@H]3[C@@H](O)C[C@H](O[C@H]4CC[C@@]5(C)[C@H](CC[C@@H]6[C@@H]5CC[C@]5(C)[C@H](C7COC(=O)C7)CC[C@]65O)C4)O[C@@H]3C)O[C@@H]2C)C[C@H](O)[C@@H]1O` (some centres not stated), for which the IC50 ratio in assay [1] was found to be 340; in assay [4], 1800.

Take `C[C@H]1O[C@@H](O[C@H]2[C@@H](O)C[C@H](O[C@H]3[C@@H](O)C[C@@H](O[C@H]4CC[C@@]5(C)[C@H](CC[C@@H]6[C@@H]5C[C@@H](O)[C@]5(C)[C@@H](C7=CC(=O)OC7)[C@@H](O)C[C@]65O)C4)O[C@@H]3C)O[C@@H]2C)C[C@H](O)[C@@H]1O`: in assay [5], the Relative Ki was found to be 33.

In turn, `CO[C@H]1[C@@H](O)[C@@H](C)O[C@@H](O[C@H]2CC[C@@]3(C)[C@H](CC[C@@H]4[C@@H]3CC[C@]3(C)[C@@H](C5=CC(=O)OC5)C(O)C[C@]43O)C2)[C@@H]1O` (some centres not stated) displayed a Relative Ki in assay [5] of 35.

With `CC(=O)O[C@]1(C(C)=O)CC[C@H]2[C@@H]3C=C(Cl)C4=CC(=O)CC[C@]4(C)[C@H]3CC[C@@]21C`, the IC50 ratio result in assay [1] and in assay [4] was “No inhibition” in each case.

As for `CC(=O)O[C@H]1[C@H]2O[C@]23[C@@H]2CC[C@@H]4C[C@@H](O)CC[C@]4(C)[C@H]2CC[C@]3(C)[C@H]1c1ccc(=O)oc1`, the IC50 ratio was 98000 in assay [1], 800 in assay [2], 570 in assay [3] and 1700 in assay [4].

Take `CC(C)CCC[C@@H](C)[C@H]1CC[C@H]2[C@@H]3CC=C4C[C@@H](O)CC[C@]4(C)[C@H]3CC[C@]12C`: the IC50 ratio entry in assay [1], in assay [2], in assay [3] and in assay [4] was “inactive” each time.

For the compound `CC1CC(O[C@H]2CC[C@@]3(C)[C@H](CC[C@@H]4[C@@H]3CC[C@]3(C)[C@@H](C5=CC(=O)OC5)CC[C@]43O)C2)CC(O)C1O` (some centres not stated), the IC50 ratio worked out at 36 in assay [1], 25 in assay [2], 47 in assay [3] and 29 in assay [4].

As to `C[C@]12C=CC(=O)C=C1CC[C@@H]1[C@@H]2[C@@H](O)C[C@@]2(C)[C@H]1CC[C@]2(O)C(=O)COC(=O)CCC(=O)O`, the IC50 ratio in assay [1] was 160000; in assay [4] it was 3400.

Compound `CC(=O)O[C@@H]1C[C@H]2[C@@H](CC[C@@H]3C[C@@H](O[C@H]4C[C@H](O)[C@H](O[C@H]5C[C@H](O)[C@H](O[C@H]6C[C@H](O)[C@H](O)[C@@H](C)O6)[C@@H](C)O5)[C@@H](C)O4)CC[C@@]32C)[C@@]2(O)CCC(C3=CC(=O)OC3)[C@@]12C` (some centres not stated) had a Relative Ki in assay [5] of 0.5.

`CO[C@@H]1[C@H](O)[C@@H](O[C@@H]2C[C@H]3CC[C@@H]4[C@H](CC[C@]5(C)[C@@H](C6=CC(=O)OC6)CC[C@]45O)[C@@]3(C)[C@H](O)C2)O[C@@H](C)[C@@H]1O` gave a Relative Ki in assay [5] of 0.5.

For `C[C@]12CC[C@H]3[C@@H](CCC4=CC(=O)CC[C@@]43C)[C@@H]1CC[C@@H]2O`, in assay [1], the IC50 ratio result was “inactive”. For the same compound, the IC50 ratio in assay [2] is 110; in assay [3], 120; in assay [4] it was 100.

The compound `CC(=O)O[C@H]1CC[C@@]2(C)[C@H](CC[C@@H]3[C@@H]2CC[C@]2(C)[C@@H](C4=CC(=O)OC4)[C@@H](O)C[C@]32O)C1` yielded a Relative Ki in assay [5] of 74.

On to `CC(=O)OCC(=O)[C@@]1(O)CC[C@H]2[C@@H]3CCC4=CC(=O)C=C[C@]4(C)[C@H]3[C@@H](O)C[C@@]21C`, for which the IC50 ratio result in assay [1] is “No inhibition”; in assay [4], 12000.

With `C[C@]12CC[C@@H](O)C[C@H]1CC[C@@H]1[C@@H]2C[C@@H](O)[C@]2(C)[C@@H](C3=CC(=O)OC3)CCC12O` (some centres not stated), in assay [5], the Relative Ki was determined as 12.

Turning to `CC(=O)O[C@H]1C[C@H](O[C@H]2[C@@H](O)C[C@H](O[C@H]3[C@@H](O)C[C@H](O[C@H]4CC[C@@]5(C)[C@H](CC[C@@H]6[C@@H]5C[C@@H](O)[C@]5(C)[C@@H](C7=CC(=O)OC7)CC[C@]65O)C4)O[C@@H]3C)O[C@@H]2C)O[C@H](C)[C@H]1O[C@@H]1O[C@H](CO)[C@@H](O)[C@H](O)[C@H]1O`, the IC50 ratio in assay [1] was 1.6; in assay [2], 1.6; in assay [3] it was 1.1; in assay [4] it was 1.4.

For `C[C@]12CC[C@H](O)C[C@H]1CC[C@@H]1[C@@H]2CC[C@]2(C)[C@@H](c3ccc(=O)oc3)CC[C@]12O`, the IC50 ratio worked out at 6700 in assay [1], 260 in assay [2], 250 in assay [3] and 550 in assay [4].

With `CC(=O)O[C@]1(C(C)=O)CC[C@H]2[C@@H]3CCC4=C/C(=N/OCC(=O)O)CC[C@]4(C)[C@H]3CC[C@@]21C`, the IC50 ratio result in assay [1] and in assay [4] was “No inhibition” each time.

Regarding `C[C@H]1O[C@@H](O[C@H]2[C@@H](O)C[C@H](O[C@H]3CC[C@@]4(C)[C@H](CC[C@@H]5[C@@H]4CC[C@]4(C)[C@@H](C6=CC(=O)OC6)CC[C@]54O)C3)O[C@@H]2C)C[C@H](O)[C@@H]1O`, the IC50 ratio was determined as 4.9 in assay [1], 11 in assay [2], 14 in assay [3] and 14 in assay [4].

For the compound `C[C@]12CC[C@H]3[C@@H](CC[C@]4(O)C[C@@H](O)CC[C@]34CO)[C@@]1(O)CC[C@@H]2C1=CC(=O)OC1`, in assay [5], the Relative Ki was 4.

Turning to `C[C@H]1O[C@@H](O[C@@H]2CC[C@@]3(O)CC[C@@H]4[C@H](CC[C@]5(C)[C@@H](C6=CC(=O)OC6)CC[C@]45O)[C@@]3(C=O)C2)C[C@H](O)[C@@H]1O`, the IC50 ratio in assay [1] worked out at 6200; in assay [2], 2500; in assay [3], 3000; in assay [4], 2100.

For the compound `CC(=O)O[C@H]1C[C@H](O[C@H]2[C@@H](O)C[C@H](O[C@H]3[C@@H](O)C[C@H](O[C@H]4CC[C@@]5(C)[C@H](CC[C@@H]6[C@@H]5CC[C@]5(C)[C@@H](C7=CC(=O)OC7)CC[C@]65O)C4)O[C@@H]3C)O[C@@H]2C)O[C@H](C)[C@H]1O`, the IC50 ratio amounted to 3.9 in assay [1], 20 in assay [2], 48 in assay [3] and 25 in assay [4].

As to `C[C@H]1O[C@@H](O[C@H]2[C@@H](O)C[C@H](O[C@H]3CC[C@@]4(C)[C@H](CC[C@@H]5[C@@H]4C[C@@H](O)[C@]4(C)[C@@H](C6=CC(=O)OC6)CC[C@]54O)C3)O[C@@H]2C)C[C@H](O)[C@@H]1O`, the IC50 ratio in assay [1] was 1.6; in assay [2] it was 0.9; in assay [3] it was 1.3; in assay [4] it was 1.

On to `C[C@]12C=CC(=O)C=C1CC[C@@H]1[C@@H]2C(=O)C[C@@]2(C)[C@H]1CC[C@]2(O)C(=O)CO`, for which the IC50 ratio entry is “No inhibition” in assay [1], “No inhibition” in assay [2], 3400 in assay [3] and “No inhibition” in assay [4].

For `C[C@]12CC[C@H](O)CC1CC[C@@H]1[C@@H]2CC[C@]2(C)[C@@H](C3=CC(=O)OC3)CC[C@]12O` (single isomer, unassigned), the IC50 ratio in assay [1] amounted to 4900; in assay [2] it was 6.7; in assay [3] it was 3.6; in assay [4] it was 4.1.

`C[C@]12CC[C@@H](O)C[C@@H]1CC[C@@H]1[C@@H]2CC[C@]2(C)C(=O)CC[C@@H]12`: the IC50 ratio entry in assay [1] and in assay [3] was “inactive” each time. For the same compound, the IC50 ratio in assay [2] is 1800; in assay [4] it was 1300.

In the case of `C[C@]12C[C@H](O)[C@H]3[C@@H](CCC4=CC(=O)CC[C@@]43C)[C@@H]1CC[C@@H]2C(=O)CO`, the IC50 ratio was determined as 14000 in assay [1], 970 in assay [2], 420 in assay [3] and 390 in assay [4].

As for `C[C@]12CC[C@@H]3c4ccc(O)cc4CC[C@H]3[C@@H]1CC[C@@H]2O`, the IC50 ratio entry in assay [1], in assay [2], in assay [3] and in assay [4] was “inactive” each time.

With `C[C@]12CCC(=O)C=C1CC[C@@H]1[C@@H]2[C@@H](O)C[C@@]2(C)[C@H]1CC[C@]2(O)C(=O)CO`, the IC50 ratio result in assay [1] is “No inhibition”; in assay [2], 3700; in assay [3] it was 650; in assay [4] it was 1100.

As to `CO[C@H]1C(O)[C@H](O[C@H]2CC[C@@]3(C)[C@H](CC[C@@H]4[C@@H]3CC[C@]3(C)[C@@H](C5=CC(=O)OC5)CC[C@]43O)C2)O[C@@H](C)[C@@H]1O[C@@H]1O[C@H](CO[C@@H]2O[C@H](CO)[C@@H](O)[C@H](O)[C@H]2O)[C@@H](O)[C@H](O)[C@H]1O` (some centres not stated), the IC50 ratio was 97 in assay [1], 18 in assay [2], 7.6 in assay [3] and 8.6 in assay [4].

With `C[C@]12CCC(=O)C=C1CC[C@@H]1[C@@H]2[C@@H](O)C[C@]2(C=O)[C@@H](C(=O)CO)CC[C@@H]12`, the IC50 ratio result in assay [1] is “inactive”. In addition, the IC50 ratio in assay [2] was 760; in assay [3] it was 550; in assay [4], 540.

On to `C[C@]12CCC(=O)C=C1CC[C@@H]1[C@@H]2C(=O)C[C@@]2(C)[C@H]1CC[C@]2(O)C(=O)CO`, for which the IC50 ratio entry in assay [1], in assay [2], in assay [3] and in assay [4] was “No inhibition” throughout.

For the compound `CC(=O)O[C@H]1C[C@H](O[C@H]2CC[C@@]3(C)[C@H](CC[C@@H]4[C@@H]3C[C@@H](O)[C@]3(C)C(C5=CC(=O)OC5)CC[C@]43O)C2)O[C@H](C)[C@H]1O[C@H]1C[C@H](O)[C@H](O[C@H]2C[C@H](O)[C@H](O)[C@@H](C)O2)[C@@H](C)O1` (some centres not stated), the IC50 ratio is 0.9 in assay [1], 1.5 in assay [2], 0.9 in assay [3] and 1 in assay [4].
